The values below come from patent US20240148819A1, “COMPOUNDS FOR USE IN THE TREATMENT OF SINUSITIS, PNEUMONIA OR OTITIS” (PHARMA HOLDINGS AS, priority 2021, published 2024).

The test system of one data set is HeLaM cells. As to conditions: 1% LTX-7 (w/v) or 0.25% SDS in PBS, contact time 1 h, after filtration, no virus.
Data set [1] has as its system Influenza A strain A/WSN/33 (H1N1). The format is cell-based, Influenza A virus.
The test system of another data set is MDCK-II cells. Particulars: 1% LTX-7 (w/v) or 0.2% Triton X-100 in PBS, contact time 1 h, after filtration, no virus.
For data set [2], the system named is Rhinovirus (HRV-A60), Strain: 2268-CV37. In words: TCID50 assay after 1 h incubation of virus with LTX-7 (Example 10). Type of data set: cell-based. Particulars: 1% LTX-7 or 0.25% SDS; for % Reduction: Rhinovirus infectivity; for % Reduction / Log decrease: compared to PBS control; for Log decrease: Rhinovirus.
A further data set concerns Moraxella catarrhalis. The protocol: (§1) Bacterial and fungal isolates used in this study were from various sources worldwide stored at GR Micro Ltd. and maintained, with minimal sub-culture, deep frozen at −70° C. as a dense suspension in a high protein matrix of undiluted horse serum.
(§2) Minimum inhibitory concentration (MIC) of LTX-109 was determined using the following microbroth dilution methods for antimicrobial susceptibility testing published by the Clinical and Laboratory Standards Institute (CLSI, formerly NCCLS): • M7-A6 Vol. 23 No. 2 Jan. 2003 Methods for Dilution Antimicrobial Susceptibility Tests for Bacteria that Grow Aerobically; Approved Standard-Sixth Edition. National Committee for Clinical Laboratory Standards. • M100-S15 Vol. 25 No 1. January 2005 Performance Standards for Antimicrobial Susceptibility Testing; Fifteenth Informational Supplement. Clinical and Laboratory Standards Institute • M11-A6 Vol. 24 No. 2 Methods for Antimicrobial Susceptibility Testing of Anaerobic Bacteria; Approved Standard-Sixth Edition. National Committee for Clinical Laboratory Standards. • M27-A2 Vol. 22 No. 15 Reference Method for Broth Dilution Antifungal Susceptibility Testing of Yeasts; Approved Standard-Second Edition. National Committee for Clinical Laboratory Standards. • M38-A Vol. 22 No. 16 Reference Method for Broth Dilution Antifungal Susceptibility Testing of Filamentous Fungi; Approved Standard. National Committee for Clinical Laboratory Standards.
(§3) MIC estimations were performed using wet plates, containing the LTX-109, prepared at GR Micro Ltd.
(§4) Cation-adjusted Mueller-Hinton broth (Oxoid Ltd., Basingstoke, UK and Trek Diagnostic Systems Ltd., East Grinstead, UK) (supplemented with 5% laked horse blood for Streptococcus spp.) was used for aerobic bacteria, with an initial inoculum of approximately 10^5 colony-forming units (CFU)/mL.
(§5) Following normal practice all the plates containing Mueller-Hinton broth were prepared in advance, frozen at −70° C. on the day of preparation and defrosted on the day of use. Fungal, Haemophilus and anaerobic MIC determinations were all performed in plates prepared on the same day.

The test system of the next data set is Streptococcus pneumoniae. The procedure: as §1, §2, §3, §4, §5
The next data set relates to Streptococcus pyogenes. As to conditions: Streptococcus pyogenes - macrolide (MLS) resistant clinical isolate. The procedure:
as §1, §2, §3, §4, §5

Another data set has as its system Candida parapsilosis. Particulars: Candida parapsilosis - ATCC90018 - reference strain. The protocol:
as §1, §2, §3
(§6) Yeast and filamentous fungal MIC were performed in MOPS buffered RPMI 1640 medium (MOPS buffer obtained from Sigma Aldrich Ltd., RPMI 1640 obtained from Invitrogen Ltd, Paisley, Scotland). The yeast inocula were in the range 7.5×10^2-4×10^3 CFU/mL and the filamentous fungi approximately 8×10^3-1×10^5 CFU/mL.
as §5

A further data set has as its system Aspergillus niger. Particulars: Aspergillus niger - G. R. Micro collection. The protocol:
as §1, §2, §3, §6, §5

The next data set has as its system Candida tropicalis. As to conditions: Candida tropicalis - ATCC750 - reference strain. The protocol: as §1, §2, §3, §6, §5
The next data set has as its system Candida krusei. Particulars: Candida krusei - ATCC6258 - reference strain. The protocol: as §1, §2, §3, §6, §5
Another data set relates to Candida albicans. The procedure:
as §1, §2, §3, §6, §5

For another data set, the system named is Mycoplasma pneumoniae. Particulars: both of the library strains of Mycoplasma pneumoniae. The procedure:
Two library strains of Mycoplasma pneumoniae were used. These strains were stored at GR Micro Ltd. and maintained, with minimal sub-culture, deep frozen at −70° C. as a dense suspension in a high protein matrix of undiluted horse serum.
MIC determination was carried out using a broth microdilution method in Mycoplasma Broth Base (Oxoid Ltd, Hampshire, UK), prepared according to the manufacturer's instructions.

The test system of the next data set is Vero cells. In words: Parallel test without virus for residual cytotoxicity (Example 8). As to conditions: 1% LTX-12 (w/v) or 0.2% Triton in PBS, contact time 1 h, after filtration, no virus.
The test system of data set [3] is SARS-CoV-2 isolate England/02/2020. The format is cell-based.
Data set [4] concerns Rhinovirus 60, 2268-CV37. In words: TCID50 assay after 1 h incubation of virus with 3% LTX-109, stopped by dilution (Example 7). Type of data set: cell-based.
The subject of data set [5] is HeLa cells. Particulars: 1% LTX-109 (w/v) or 0.25% SDS, after filtration, no virus, dilution showing cytotoxicity.
Procedure: (§7) A parallel test where the same procedure was carried out in the absence of virus was included to determine any residual cytotoxic effect of the formulation on the assay cells.
In data set [6] the test system is HeLa cells. Briefly: Parallel test without virus for residual cytotoxicity (Example 7). Type of data set: cell-based, human. As to conditions: 3% LTX-109 (w/v) or 0.25% SDS, after dilution (50 μl in 5 ml), no virus.
Procedure: as §7
In data set [7] the test system is Rhinovirus 60, 2268-CV37. Briefly: TCID50 assay after 1 h incubation of virus with 1% LTX-109 (Example 6). The format is cell-based.

Values after ≈ are worked out from the molar mass of the structure shown. Read-outs that look alike come from different tables or passages of the source.

Procedure for HeLaM cells: (§8) A parallel test where the same procedure was carried out in the absence of virus was included to determine any residual cytotoxic effect of LTX-7 on the assay cells.
Procedure for MDCK-II cells: as §8

What is called MIC is the smallest concentration in the dilution series that meets the test's criterion for growth inhibition. A lower MIC goes with greater potency. `N=C(N)NCCCC(N)C(=O)NC(Cc1ccc(-c2ccc3ccccc3c2)cc1)C(=O)NC(CCCNC(=N)N)C(=O)NCCc1ccccc1` (stereo not drawn) [LTX-7, Arg-Phe(4-(2-Naphthyl))-Arg-NH—CH2—CH2-Ph]: the figures for the Cytotoxicity result with HeLaM cells and in the data set on MDCK-II cells were “Neat” and “neat”, respectively. The “% Reduction” value in data set [1] worked out at 99.9988%; in data set [2], 95.791%. In data set [2], this molecule had a Log decrease of 1.33 log. Further, the MIC in the data set on Moraxella catarrhalis (Moraxella catarrhalis - reduced fluoroquinolone susceptibility clinical isolate) was 8 µg/mL (≈ 11.3 µM); against Moraxella catarrhalis (Moraxella catarrhalis - β-lactamase positive clinical isolate) it was 4 µg/mL (≈ 5.66 µM); in the data set with Streptococcus pneumoniae (Streptococcus pneumoniae - penicillin intermediate clinical isolate) it was 32 µg/mL (≈ 45.3 µM); in the data set on Streptococcus pneumoniae (Streptococcus pneumoniae - penicillin resistant clinical isolate), 32 µg/mL (≈ 45.3 µM); with Streptococcus pyogenes, 32 µg/mL (≈ 45.3 µM); against Candida parapsilosis it was 4 µg/mL (≈ 5.66 µM). The minimal inhibitory concentration (MIC) was 4 µg/mL (≈ 5.66 µM) against Aspergillus niger; 2 µg/mL (≈ 2.83 µM) in the data set with Candida tropicalis; 4 µg/mL (≈ 5.66 µM) against Candida krusei; 2 µg/mL (≈ 2.83 µM) against Candida albicans (Candida albicans - ATCC24433 - reference strain); 2 µg/mL (≈ 2.83 µM) in the data set on Candida albicans (Candida albicans - ATCC90028 - reference strain); 32 µg/mL (≈ 45.3 µM) with Mycoplasma pneumoniae.

In the case of `CC(C)(C)c1cc(C(C)(C)C)c2[nH]c(C(C)(C)C)c(CC(NC(=O)C(N)CCCCN)C(=O)NC(CCCCN)C(=O)NCCc3ccccc3)c2c1` (stereo not drawn) [LTX-12, Lys-Tbt-Lys-NH—CH2—CH2-Ph], the Cytotoxicity result with Vero cells is “No cytotoxicity”. Also, the “% Reduction” value in [3] was 99.977%.

Regarding `CCCCCCCCCCCCOS(=O)(=O)[O-].[Na+]` [SDS, Sodium dodecyl sulphate], the “TCID50/ml ± SEM” value in the data set on Rhinovirus 60, 2268-CV37 [4] (Rhinovirus titre recovered after 1 hour with 3% LTX-109 (w/v) or 0.25% SDS, dilution, no filter, HeLa cells, 7 days) came out at 1.58E+01 TCID50/ml; in the data set on Rhinovirus 60, 2268-CV37 [7] (Rhinovirus titre recovered after 1 hour with 1% LTX-109 (w/v) or 0.25% SDS, filtration, HeLa cells, 7 days), 1.00E+02 TCID50/ml. Also, the Log decrease in the data set on Rhinovirus 60, 2268-CV37 [4] (Rhinovirus, 3% LTX-109 or 0.25% SDS, 1 hour, compared to PBS control) amounted to 3.0 log; in data set [2], 3.67 log; in the data set with Rhinovirus 60, 2268-CV37 [7] (Rhinovirus, 1% LTX-109 or 0.25% SDS, 1 hour, compared to PBS control), 3.6 log. In addition, the Percentage with Rhinovirus 60, 2268-CV37 [4] (decrease in Rhinovirus infectivity, 3% LTX-109 or 0.25% SDS, 1 hour, compared to PBS control) is reported as 99.91%; in the data set with Rhinovirus 60, 2268-CV37 [7] (decrease in Rhinovirus infectivity, 1% LTX-109 or 0.25% SDS, 1 hour, compared to PBS control), 99.98%. The Log with Rhinovirus 60, 2268-CV37 [4] (log of Rhinovirus titre after 1 hour with 3% LTX-109 or 0.25% SDS) was found to be 1.2; with Rhinovirus 60, 2268-CV37 [7] (log of Rhinovirus titre after 1 hour with 1% LTX-109 or 0.25% SDS), 2.0. The Cytotoxicity entry in the data set with HeLa cells [5], with HeLa cells [6] and with HeLaM cells was “Neat” in each case. Also, the “% Reduction” value in data set [2] worked out at 99.983%. The Rounded % in [2] (rounded % reduction of Rhinovirus infectivity) is on record as 99.9%.
